Experimental data from patent EP4722195A1, “PH-SENSITIVE CATIONIC LIPID AND LIPID NANOPARTICLES” (National University Corporation Hokkaido University, priority 2023, dated 2024).
Blank lines part the entries; values can stand above or below the compound they belong to.

Experiments:
[1] = Average particle size and polydispersity index of lipid nanoparticles (dynamic light scattering); format: physicochemical
Experimental: (§1) The average particle size (number average value), ζ-average particle size, and polydispersity index (PdI) of the lipid nanoparticles in PBS(-) (pH 7.4), and the zeta potential in 10 mM HEPES buffer (pH 7.4) were measured using an analyzer "Zetasizer Nano ZS ZEN3600" (manufactured by Malvern) utilizing dynamic light scattering.

[2] = Zeta potential of lipid nanoparticles; format: physicochemical
Experimental: as §1

[3] = Encapsulation rate of lipid nanoparticles (Ribogreen); format: physicochemical
Experimental: The encapsulation rate of the lipid nanoparticles was determined by measuring the amount of encapsulated nucleic acid (mRNA) using Ribogreen (manufactured by Life Technologies), which is an RNA intercalator. The mRNA amount was quantified based on a calibration curve prepared from a series of diluted mRNA solutions at known concentrations.
Specifically, 10 mM HEPES buffer (pH 7.4), 10 w/v% Triton X-100, and Ribogreen were mixed at 978.8 µL, 20 µL, and 1.25 µL per 10 wells, respectively, to obtain a Triton(+) buffer. A Triton(-) buffer was obtained in replacing Triton X-100 with 10 mM HEPES buffer (pH 7.4). 100 µL/well of the sample was added to a black 96-well plate for fluorescence measurement, and 100 µL/well of Triton(+) buffer or Triton(-) buffer was added. After the plate was gently shaken on a shaking incubator (SI-300, manufactured by AS ONE) (700 rpm, 30 seconds), the fluorescence intensity of each well was measured using a microplate reader (VARIOSKAN LUX, manufactured by Thermo Fisher Scientific) (wavelength Ex/Em=500 nm/525 nm), and the nucleic acid encapsulation rate (%) was calculated.

liver = experiment: Fluc activity in the liver of mice administered Fluc mRNA-loaded lipid nanoparticles; format: in vivo, BALB/c mice; conditions: for Fluc activity in the liver at 6, 24, and 48 hours after administration: Example 28, Fig. 7, TxT-5-5A12β versus TxT-5-5A14 nanoparticles, 50/3/47/1.5 (mol%)
Experimental: Lipid nanoparticles were administered to mice by intravenous injection into the tail vein using a 27G needle. Unless otherwise specified, BALB/c mice (4 to 5 weeks old, female) were used.
First, BALB/c mice (female, 4 weeks old) were intravenously injected with lipid nanoparticles encapsulating Fluc mRNA (Fluc mRNA-loaded lipid nanoparticles) at a dose of 0.1 mg mRNA/kg. Six hours after intravenous injection, the mice were euthanized, each tissue was collected, frozen in liquid nitrogen, and stored at -80°C. The tissues were homogenized in passive lysis buffer (manufactured by Promega) using a bead-type cell disruptor (Micro Smash MS-100R, manufactured by TOMY Seiko). Tissue debris was removed by centrifugation, and the supernatant was collected. Fluc activity in the supernatant was measured using the Luciferase Assay System (E1500, manufactured by Promega) according to the manufacturer's protocol. Luminescence was measured using a luminometer (Luminescencer-PSN, manufactured by ATTO). Protein concentration was determined using a commercially available assay kit (BCA Protein Assay Kit, manufactured by Pierce). Fluc activity was expressed as relative light units (RLU) per mg of protein.
Subsequently, lipid nanoparticles encapsulating Fluc mRNA prepared using TxT-5-5A10, TxT-5-5A12, TxT-5-5A12β, TxT-5-5A14, and TxT-5-5A16 were administered to mice to evaluate luciferase expression levels (Fluc activity) in various tissues. Specifically, each Fluc mRNA-loaded lipid nanoparticle was administered to Balb/c mice at a dose of 0.1 mg mRNA/kg. Six hours after administration, the mice were euthanized, and their organs were collected to measure Fluc activity (RLU/mg protein) (N = 2 or 4).

[4] = Apparent pKa of lipid nanoparticles (TNS)
Experimental: The apparent pKa of the lipid nanoparticles was measured using p-toluenesulfonic acid (TNS). First, TNS (final concentration: 0.75 µM) and lipid nanoparticles (final concentration: 30 µM) were mixed in a buffer (200 mL) adjusted to each pH (pH 3.5 to 9.5). As the buffer, 20 mM citrate buffer, 20 mM sodium phosphate buffer, or 20 mM Tris-HCl buffer containing 130 mM NaCl was used. The fluorescence intensity of the prepared mixture was measured using a fluorescence spectrophotometer (Varioskan Lux, manufactured by Thermo Fisher Scientific) with the settings of λex=321 nm and λem=447 nm. Among the measured values, the highest value and the lowest value were set as 100% and 0% ionization degrees, respectively, and the pH showing a 50% ionization degree was calculated as the apparent pKa. The content ratio (%) of cationically charged pH-sensitive cationic lipid was calculated using the Henderson-Hasselbalch equation.

[5] = Table 1, Fluc mRNA-loaded lipid nanoparticles, TxT/DSPC/chol/PEG-DMG=50/15/35/1.5 (mol%)
[6] = Table 3, Fluc mRNA-loaded lipid nanoparticles, TxT/DSPC/chol/PEG-DMG=50/3/47/1.5 (mol%)
[7] = Table 5, EGFP mRNA-loaded lipid nanoparticles, TxT/DSPC/chol/PEG-DMG=50/3/47/1.5 (mol%), total flow rate 3.0 mL/min
[8] = Table 6 (Example 28), Fluc mRNA-loaded lipid nanoparticles, TxT/DSPC/chol/PEG-DMG=50/3/47/1.5 (mol%)
[9] = Table 7, hEPO mRNA-loaded lipid nanoparticles, TxT/DSPC/chol/PEG-DMG=50/3/47/1.5, SM-102/DSPC/chol/PEG-DMG=50/10/40/1.5 (mol%)
[10] = Table 8 (Example 32), lipid nanoparticles for TTR-targeted genome editing, Cas9-mRNA and TTR-gRNA 1:2 (N/P = 6.0), TxT/DSPC/chol/PEG-DMG = 50/3/47/1.5 (mol%)
[11] = Table 1, apparent pKa of Fluc mRNA-loaded lipid nanoparticles, TxT/DSPC/chol/PEG-DMG=50/15/35/1.5 (mol%)
[12] = Table 4, Fluc mRNA-loaded lipid nanoparticles, TxT-5-5A14/DSPC/chol/PEG-DMG=50/3/47/1.5, SM-102, ALC-0315 or MC3/DSPC/chol/PEG-DMG=50/10/40/1.5 (mol%)
[13] = Table 9 (Example 33), lipid nanoparticles for TTR-targeted genome editing, Cas9-mRNA and TTR-gRNA 1:2 (N/P = 6.0), TxT-5-5A14/DSPC/chol/PEG-DMG = 50/3/47/1.5 (mol%)
[14] = Table 10 (Example 34), lipid nanoparticles for PCSK9-targeted genome editing, Cas9-mRNA and PCSK9-gRNA 1:2 (N/P = 6.0), TxT-5-5A14/DSPC/chol/PEG-DMG = 50/3/47/1.5 (mol%)

average particle diameter, comparison among TxT lipids ([1]; Example 32, Table 8, lipid nanoparticles for TTR-targeted genome editing): largest | Pdl [1, 5]: 0.08 | number average particle size [1, 5]: 82.8 nm | ζ-average particle size [1, 5]: 111.9 nm | Pdl [1, 6]: 0.08 | number average particle size [1, 6]: 72.8 nm | ζ-average particle size [1, 6]: 96.0 nm | Pdl [1, 7]: 0.05 | number average particle size [1, 7]: 81.9 nm | ζ-average particle size [1, 7]: 104.0 nm | Pdl [1, 8]: 0.06 | number average particle size [1, 8]: 71.2 nm | ζ-average particle size [1, 8]: 92.0 nm | Pdl [1, 9]: 0.10 | number average particle size [1, 9]: 66.9 nm | ζ-average particle size [1, 9]: 88.9 nm | Pdl [1, 10]: 0.02 | number average particle size [1, 10]: 71.3 nm | ζ-average particle size [1, 10]: 87.8 nm | ζ-potential [2, 5]: -6.0 mV | ζ-potential [2, 6]: -5.6 mV | ζ-potential [2, 7]: -7.8 mV | ζ-potential [2, 8]: -8.4 mV | ζ-potential [2, 9]: -3.0 mV | ζ-potential [2, 10]: -3.8 mV | mRNA concentration [3, 5]: 0.024 µg/µL | mRNA encapsulation rate [3, 5]: 97.0% | mRNA concentration [3, 6]: 0.023 µg/µL | mRNA encapsulation rate [3, 6]: 99.5% | mRNA concentration [3, 7]: 0.016 µg/µL | mRNA encapsulation rate [3, 7]: 99.1% | mRNA concentration [3, 8]: 0.020 µg/µL | mRNA encapsulation rate [3, 8]: 98.0% | mRNA concentration [3, 9]: 0.017 µg/µL | mRNA encapsulation rate [3, 9]: 99.5% | mRNA concentration [3, 10]: 0.412 µg/µL | mRNA encapsulation rate [3, 10]: 99.1% | pKa [4, 11]: 4.90 | pKa [4, 6]: 6.53
SMILES: CCCCCCC(CCCC)CNC(=O)CCCC(=O)OCC(COC(=O)CCCC(=O)NCC(CCCC)CCCCCC)(COC(=O)CCCC(=O)NCC(CCCC)CCCCCC)NC(=O)CCN1CCCCC1 (stereo not drawn) [TxT-5-5A12β, 2-(((5-((2-butyloctyl)amino)-5-oxopentanoyl)oxy)methyl)-2-(3-(piperidin-1-yl)propanamido)propane-1,3-diyl bis(5-((2-butyloctyl)amino)-5-oxopentanoate)]
Fluc activity in the liver at 6, 24, and 48 hours after administration (liver; N = 3): comparable levels of gene expression at all time points

Pdl [1, 5]: 0.11 | number average particle size [1, 5]: 72.4 nm | ζ-average particle size [1, 5]: 106.2 nm | Pdl [1, 6]: 0.08 | number average particle size [1, 6]: 78.9 nm | ζ-average particle size [1, 6]: 101.0 nm | Pdl [1, 12]: 0.08 | number average particle size [1, 12]: 82.4 nm | ζ-average particle size [1, 12]: 113.8 nm | Pdl [1, 7]: 0.06 | number average particle size [1, 7]: 80.9 nm | ζ-average particle size [1, 7]: 106.0 nm | Pdl [1, 8]: 0.09 | number average particle size [1, 8]: 79.6 nm | ζ-average particle size [1, 8]: 107.7 nm | Pdl [1, 9]: 0.04 | number average particle size [1, 9]: 76.6 nm | ζ-average particle size [1, 9]: 103.4 nm | Pdl [1, 10]: 0.05 | number average particle size [1, 10]: 66.4 nm | ζ-average particle size [1, 10]: 82.2 nm | Pdl [1, 13]: 0.10 | number average particle size [1, 13]: 67.7 nm | ζ-average particle size [1, 13]: 91.8 nm | Pdl [1, 14]: 0.10 | number average particle size [1, 14]: 73.6 nm | ζ-average particle size [1, 14]: 99.4 nm | ζ-potential [2, 5]: -3.4 mV | ζ-potential [2, 6]: -7.5 mV | ζ-potential [2, 12]: -8.9 mV | ζ-potential [2, 7]: -13.0 mV | ζ-potential [2, 8]: -6.4 mV | ζ-potential [2, 9]: -1.4 mV | ζ-potential [2, 10]: -5.5 mV | ζ-potential [2, 13]: -4.0 mV | ζ-potential [2, 14]: -1.6 mV | mRNA concentration [3, 5]: 0.025 µg/µL | mRNA encapsulation rate [3, 5]: 98.8% | mRNA concentration [3, 6]: 0.022 µg/µL | mRNA encapsulation rate [3, 6]: 98.6% | mRNA concentration [3, 12]: 0.022 µg/µL | mRNA encapsulation rate [3, 12]: 99.4% | mRNA concentration [3, 7]: 0.023 µg/µL | mRNA encapsulation rate [3, 7]: 99.0% | mRNA concentration [3, 8]: 0.021 µg/µL | mRNA encapsulation rate [3, 8]: 98.2% | mRNA concentration [3, 9]: 0.022 µg/µL | mRNA encapsulation rate [3, 9]: 99.3% | mRNA concentration [3, 10]: 0.467 µg/µL | mRNA encapsulation rate [3, 10]: 96.5% | mRNA concentration [3, 13]: 0.037 µg/µL | mRNA encapsulation rate [3, 13]: 99.1% | mRNA concentration [3, 14]: 0.311 µg/µL | mRNA encapsulation rate [3, 14]: 97.1% | pKa [4, 11]: 4.99 | pKa [4, 6]: 6.46 | pKa [4, 12]: 6.53
SMILES: CCCCCCCN(CCCCCCC)C(=O)CCCC(=O)OCC(COC(=O)CCCC(=O)N(CCCCCCC)CCCCCCC)(COC(=O)CCCC(=O)N(CCCCCCC)CCCCCCC)NC(=O)CCN1CCCCC1 [TxT-5-5A14, 2-(((5-(diheptylamino)-5-oxopentanoyl)oxy)methyl)-2-(3-(piperidin-1-yl)propanamido)propane-1,3-diyl bis(5-(diheptylamino)-5-oxopentanoate)]
Fluc activity (liver), comparison among TxT lipids (liver; Example 24, Fig. 3A, TxT/DSPC/chol/PEG-DMG=50/3/47/1.5 (mol%), 0.1 mg mRNA/kg, six hours): highest Fluc activity | Fluc activity in the liver compared to lipid nanoparticles comprising other cationic lipids (SM-102, ALC-0315, MC3) (liver; Example 25, Fig. 4, TxT-5-5A14 50/3/47/1.5, comparators 50/10/40/1.5 (mol%), 0.1 mg mRNA/kg, six hours, N = 3): significantly higher Fluc activity | Fluc activity in the liver at 6, 24, and 48 hours after administration (liver; N = 3): comparable levels of gene expression at all time points
